We go through one compound from patent publication US9598414B2, “Substituted benzo[5,6]azepino[3,2,1-hi]pyrido[4,3-b]indoles and substituted benzo[6,7][1,4]oxazepino[2,3,4-hi]pyrido[4,3-b]indoles for treating CNS disorders” (Daya Drug Discoveries, Inc., priority 2013, dated 2017).

The structures appear in SMILES notation.

For this experiment, the target named is Serotonin 5-HT5A (Homo sapiens, UniProt P47898). In words: Receptor binding, 5-HT5A.
Chain of Serotonin 5-HT5A (P47898 whole entry): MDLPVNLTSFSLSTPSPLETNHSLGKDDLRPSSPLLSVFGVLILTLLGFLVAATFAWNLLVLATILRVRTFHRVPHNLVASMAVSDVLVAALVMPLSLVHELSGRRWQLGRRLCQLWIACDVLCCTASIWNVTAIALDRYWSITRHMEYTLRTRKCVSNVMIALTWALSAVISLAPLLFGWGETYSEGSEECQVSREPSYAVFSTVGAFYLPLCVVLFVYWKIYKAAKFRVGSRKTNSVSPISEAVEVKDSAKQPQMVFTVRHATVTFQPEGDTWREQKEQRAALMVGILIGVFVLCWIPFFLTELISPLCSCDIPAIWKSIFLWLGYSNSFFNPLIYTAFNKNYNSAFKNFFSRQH

Compound `CN1CCc2c(c3cccc4c3n2Cc2ccccc2O4)C1` [Compound 13b] gave a Ki of 1910 nM.
